{
  "source": "patent US7387998B2",
  "about": "“STQ peptides” (New York University, priority 2003, dated 2008)",
  "key": {"[1]": {"system": "bFGF-induced angiogenesis in chorioallantoic membrane (CAM)", "test": "bFGF-induced angiogenesis in the chick CAM model", "assay_type": "in vivo", "settings": "single intravenous injection 100 ug/embryo", "source_text": "One angiogenesis assay measures angiogenesis in the chick chorioallantoic membrane (CAM) and is referred to as the CAM assay. The CAM assay is well known among those of ordinary skill in the art and has been used to measure both angiogenesis and neovascularization of tumor tissues (Ausprunk et al., Am. J. Pathol. 1975; 79:597-618 and Ossonski et al., Cancer Res. 1980; 40:2300-2309).\nAngiogenesis was induced within the chorioallantoic membrane (CAM) of 10-day old chick embryos with bFGF. Twenty-four hours later, 8-10 of the embryos were treated with a single intravenous injection of STQ-peptide (100 ug/embryo). At the end of a 3-day incubation period, the CAM tissues were removed for analysis. […] The single injection of STQ-peptide inhibited bFGF by greater than 95% (FIG. 4). […] Eight to ten chick embryos were tested in each of the two groups, and the experiment was repeated three times for a total of 24-30 chick embryos tested."}, "[2]": {"system": "Human RPE cells on denatured laminin", "test": "RPE cell adhesion to denatured laminin", "assay_type": "cell-based", "settings": "for blockade of RPE cell adhesion to denatured laminin: 30 min attachment, crystal violet OD 600 nm", "procedure": "In vitro cell adhesion assays were conducted to determine whether the STQ-peptides bind to functional epitopes within denatured laminin that regulate cellular adhesion. Non-tissue culture treated 48-well plates were coated with denatured laminin. Human RPE cells were allowed to attach to the coated wells in the absence of STQ-peptide, in the presence of STQ-peptide at a concentration of 100 μg/ml, and in the presence of STQ-peptide at a concentration of 200 μg/ml.\n(§1) Human denatured laminin (25 μg/ml) was immobilized on 48-well non-tissue culture treated plates. Wells were washed and incubated with 1% BSA (bovine serum albumin) in PBS (phosphate-buffered saline) for one hour at 37° C. Subconfluent RPE cells were harvested, washed, and resuspended in adhesion buffer containing RPMI-1640 medium, 1 mM MgCl2, 0.2 mM MnCl2, and 0.5% BSA. RPE cells (10^5) were resuspended in 200 μl of the adhesion buffer in the presence or absence of STQ-peptide at a concentration of 100 μg/ml or 200 μg/ml, and were added to each well and allowed to attach for 30 minutes at 37° C. The unattached cells were removed and the attached cells were stained for 10 minutes with crystal violet as described by Petitclerc, et al., Cancer Res. 1999; 59:2724-2730. The wells were washed three times with PBS and cell-associated crystal violet was eluted by addition of 100 μl of 10% acetic acid. Cell adhesion was quantified by measuring the optical density of eluted crystal violet at a wavelength of 600 nm.\nA set of non-tissue culture treated 48-well plates were coated with native laminin in the presence of different concentrations of STQ-peptide according to the method described in Example 2 and by Petticlerc, et al., Cancer Res. 1999; 59:2724-2730. Another set of non-tissue culture treated plates were coated with denatured laminin in the presence of different concentrations of STQ-peptide. […] STQ-peptide had little effect on RPE cell adhesion to the wells coated with native laminin at any concentration of STQ-peptide tested (FIG. 3)."}, "[3]": {"system": "RPE cells on native laminin", "test": "RPE cell adhesion to native laminin", "assay_type": "cell-based, human", "settings": "any concentration of STQ-peptide tested (FIG. 3)", "procedure": "as §1\nA set of non-tissue culture treated 48-well plates were coated with native laminin in the presence of different concentrations of STQ-peptide according to the method described in Example 2 and by Petticlerc, et al., Cancer Res. 1999; 59:2724-2730. […]"}, "[4]": {"system": "metastatic B16 melanoma cells", "test": "B16 melanoma metastasis in chick embryo lungs", "assay_type": "in vivo", "settings": "100 ug/embryo intravenously with cells; 7 days incubation; versus no-STQ-peptide group", "procedure": "Twelve-day old chick embryos (obtained from SPAFAS, North Franklin, Conn.) were injected intravenously with metastatic B16 melanoma cells (Chambers, et al., J. Natl. Cancer Inst. 1992; 84:797-803) in the presence or absence of STQ-peptide (100 ug/embryo). For each experiment, eight to ten chicks were tested under each set of conditions, and the experiment was repeated three times. The embryos were incubated for 7 days and then sacrificed. The chick lungs were analyzed for metastasis. B16 melanoma metastases appeared as discrete black lesions. The metastases were quantified by counting the B16 tumor lesions on the surface of the chick lungs for the STQ-peptide and no-STQ-peptide groups. B16 melanoma metastasis was inhibited by greater than 95% in the STQ-peptide group as compared to the no-STQ-peptide group (FIG. 5)."}, "[5]": {"system": "murine B16 melanoma cells on denatured laminin", "test": "B16 melanoma cell adhesion to denatured laminin", "assay_type": "cell-based", "settings": "STQ-peptide-S 50 μg/ml", "procedure": "as §1\n(§2) An adhesion assay was performed according to the method described in Example 2 and by Petticlerc, et al., Cancer Res. 1999; 59:2724-2730. Non-tissue culture treated 48-well plates were coated with denatured laminin in the absence of STQ-peptide-S and in the presence of STQ-peptide-S at a concentration of 50 μg/ml. […]"}, "[6]": {"system": "Human M21 melanoma cells on denatured laminin", "test": "M21 melanoma cell adhesion to denatured laminin", "assay_type": "cell-based", "settings": "STQ-peptide-S 50 μg/ml", "procedure": "as §1, §2"}},
  "note": "Where a SMILES comes first, the peptide text is derived from it.",
  "data": [
    {"compound": "CC[C@H](C)[C@H](NC(=O)[C@H](CC(C)C)NC(=O)[C@H](CO)NC(=O)[C@H](CC(C)C)NC(=O)[C@H](CC(C)C)NC(=O)[C@H](CCC(N)=O)NC(=O)[C@H](C)NC(=O)[C@H](CC(N)=O)NC(=O)[C@H](CCC(N)=O)NC(=O)[C@@H](NC(=O)[C@H](CO)NC(=O)[C@H](CS)NC(=O)CNC(=O)CNC(=O)[C@@H](N)CCCCN)[C@@H](C)O)C(=O)N[C@H](C(=O)NCC(=O)N[C@@H](CCCCN)C(=O)N[C@@H](C)C(=O)O)C(C)C", "note": "[STQ-peptide, NH2-K-G-G-C-S-T-Q-N-A-Q-L-L-S-L-I-V-G-K-A-COOH] (H-KGGCSTQNAQLLSLIVGKA-OH)", "values": [
      {"measurement": "adverse effects following injection", "setting": "[1]; chick embryos", "value": "No adverse effects"},
      {"measurement": "inhibition of bFGF-induced angiogenesis (branching vessels)", "setting": "[1]; 24 h after bFGF, 3-day incubation", "value": "greater than 95%"},
      {"measurement": "blockade of RPE cell adhesion to denatured laminin", "setting": "[2]; STQ-peptide 100 μg/ml", "value": "greater than 95%"},
      {"measurement": "blockade of RPE cell adhesion to denatured laminin", "setting": "[2]; STQ-peptide 200 μg/ml", "value": "greater than 95%"},
      {"measurement": "inhibition of RPE cell adhesion to wells coated with denatured laminin", "setting": "[2]; different concentrations of STQ-peptide (FIG. 3)", "value": "concentration dependent inhibition"},
      {"measurement": "effect on RPE cell adhesion to wells coated with native laminin", "setting": "[3]", "value": "little effect"},
      {"measurement": "inhibition of B16 melanoma metastasis (lung surface lesions)", "setting": "[4]", "value": "greater than 95%"}
    ]},
    {"compound": "NH2-K-G-G-S-T-Q-N-A-Q-L-L-S-L-I-V-G-K-A-COOH (H-KGGSTQNAQLLSLIVGKA-OH) [STQ-peptide-S]", "values": [
      {"measurement": "blockade of B16 melanoma cell adhesion to denatured laminin", "setting": "[5]", "value": "approximately 80%"},
      {"measurement": "blockade of M21 melanoma cell adhesion to denatured laminin", "setting": "[6]", "value": "approximately 80%"}
    ]}
  ]
}
